Tests used:
Experiment in all cases: Eurofins kinase selectivity profile against 380 other human recombinant kinases (Table S2)
Assay type in all cases: biochemical
[1] = molecular target: T1, 380 human recombinant protein kinases (Homo sapiens, UniProt O43293); settings: ZIPK(h), read-out: Inhibition rate (%)
T1 construct: purchased Eurofins (Celle Lévescault)
Procedure, shortened: (§1)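 Values come from a contract kinase-profiling service that tested the compound at multiple concentrations across 380 recombinant human kinases, as an off-target check against the MK2 activity.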

[2] = molecular target: T2, 380 human recombinant protein kinases (Homo sapiens, UniProt O75582); settings: MSK1(h), read-out: Inhibition rate
T2 construct: purchased Eurofins (Celle Lévescault)
T2 sequence (O75582 whole entry): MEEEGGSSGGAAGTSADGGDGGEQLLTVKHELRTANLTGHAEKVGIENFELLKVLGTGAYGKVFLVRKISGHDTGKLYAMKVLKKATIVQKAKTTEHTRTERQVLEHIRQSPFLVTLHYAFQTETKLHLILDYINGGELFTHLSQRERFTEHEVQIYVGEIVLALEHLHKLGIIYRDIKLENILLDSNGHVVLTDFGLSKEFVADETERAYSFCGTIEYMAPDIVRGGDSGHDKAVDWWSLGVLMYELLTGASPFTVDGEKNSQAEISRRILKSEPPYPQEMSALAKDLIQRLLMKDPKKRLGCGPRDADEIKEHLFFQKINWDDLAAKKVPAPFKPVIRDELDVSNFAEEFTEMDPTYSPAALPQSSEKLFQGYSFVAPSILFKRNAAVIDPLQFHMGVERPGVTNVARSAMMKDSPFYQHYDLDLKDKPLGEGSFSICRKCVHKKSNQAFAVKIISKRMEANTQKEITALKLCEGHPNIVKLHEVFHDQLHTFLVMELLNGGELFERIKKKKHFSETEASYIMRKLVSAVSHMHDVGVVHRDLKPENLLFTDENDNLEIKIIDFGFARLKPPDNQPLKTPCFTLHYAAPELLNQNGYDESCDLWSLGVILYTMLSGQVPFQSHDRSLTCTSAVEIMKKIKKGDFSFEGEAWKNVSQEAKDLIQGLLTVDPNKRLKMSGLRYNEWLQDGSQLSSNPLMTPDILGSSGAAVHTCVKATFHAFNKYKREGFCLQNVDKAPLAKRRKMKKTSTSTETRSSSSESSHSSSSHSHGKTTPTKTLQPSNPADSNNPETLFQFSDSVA
Procedure, shortened: as §1

[3] = molecular target: T3, 380 human recombinant protein kinases (Homo sapiens, UniProt Q02156); settings: PKCε(h), read-out: Inhibition rate
T3 construct: purchased Eurofins (Celle Lévescault)
T3 sequence (Q02156 1-737): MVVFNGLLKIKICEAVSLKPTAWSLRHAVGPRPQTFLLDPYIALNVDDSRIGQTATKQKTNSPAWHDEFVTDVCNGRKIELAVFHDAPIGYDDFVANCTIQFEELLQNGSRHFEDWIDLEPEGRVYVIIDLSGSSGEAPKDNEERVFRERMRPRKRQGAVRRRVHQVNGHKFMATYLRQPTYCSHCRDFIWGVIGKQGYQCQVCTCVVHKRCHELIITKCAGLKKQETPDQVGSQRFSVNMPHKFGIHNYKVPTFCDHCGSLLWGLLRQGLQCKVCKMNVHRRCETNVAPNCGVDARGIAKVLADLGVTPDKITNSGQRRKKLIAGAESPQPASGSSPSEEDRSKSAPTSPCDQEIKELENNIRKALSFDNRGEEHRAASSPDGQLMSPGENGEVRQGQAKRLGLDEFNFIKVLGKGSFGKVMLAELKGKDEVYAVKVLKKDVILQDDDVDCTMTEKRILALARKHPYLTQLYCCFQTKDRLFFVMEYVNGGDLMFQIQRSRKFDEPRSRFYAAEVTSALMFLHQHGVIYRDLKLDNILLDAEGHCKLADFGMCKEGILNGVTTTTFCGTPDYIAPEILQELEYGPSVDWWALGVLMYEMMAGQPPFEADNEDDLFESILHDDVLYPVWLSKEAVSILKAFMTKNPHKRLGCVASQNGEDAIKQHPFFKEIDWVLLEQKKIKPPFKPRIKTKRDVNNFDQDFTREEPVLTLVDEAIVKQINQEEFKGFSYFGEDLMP
Procedure, shortened: as §1

[4] = molecular target: T4, 380 human recombinant protein kinases (Homo sapiens, UniProt Q15375); settings: EphA7(h), read-out: Inhibition rate
T4 construct: purchased Eurofins (Celle Lévescault)
T4 sequence (Q15375 28-998): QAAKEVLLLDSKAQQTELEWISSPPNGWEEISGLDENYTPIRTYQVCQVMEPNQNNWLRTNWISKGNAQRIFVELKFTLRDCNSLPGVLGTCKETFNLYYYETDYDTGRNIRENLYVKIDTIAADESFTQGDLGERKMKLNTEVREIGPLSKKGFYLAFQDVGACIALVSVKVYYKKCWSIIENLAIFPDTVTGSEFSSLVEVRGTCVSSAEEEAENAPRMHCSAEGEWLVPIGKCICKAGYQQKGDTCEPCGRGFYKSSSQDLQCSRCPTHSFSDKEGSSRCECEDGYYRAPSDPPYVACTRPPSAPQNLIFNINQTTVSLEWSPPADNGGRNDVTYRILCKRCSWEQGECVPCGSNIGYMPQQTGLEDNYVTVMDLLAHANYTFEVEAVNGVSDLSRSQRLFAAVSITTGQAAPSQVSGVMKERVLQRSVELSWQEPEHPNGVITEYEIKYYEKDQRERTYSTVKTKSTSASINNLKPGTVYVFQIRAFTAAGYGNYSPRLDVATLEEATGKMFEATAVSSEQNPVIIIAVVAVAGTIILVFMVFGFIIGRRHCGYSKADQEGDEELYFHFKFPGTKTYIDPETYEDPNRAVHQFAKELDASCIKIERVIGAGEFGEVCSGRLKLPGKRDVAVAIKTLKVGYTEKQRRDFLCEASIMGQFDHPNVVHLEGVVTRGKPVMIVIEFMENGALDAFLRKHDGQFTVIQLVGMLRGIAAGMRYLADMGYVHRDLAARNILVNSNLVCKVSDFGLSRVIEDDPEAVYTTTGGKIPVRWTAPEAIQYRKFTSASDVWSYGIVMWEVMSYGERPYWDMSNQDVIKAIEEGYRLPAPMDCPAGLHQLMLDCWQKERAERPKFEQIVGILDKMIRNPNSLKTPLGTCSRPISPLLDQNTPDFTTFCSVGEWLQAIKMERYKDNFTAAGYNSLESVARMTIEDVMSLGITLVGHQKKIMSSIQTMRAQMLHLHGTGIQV
Procedure, shortened: as §1

[5] = molecular target: T5, 380 human recombinant protein kinases (Homo sapiens, UniProt Q5TCY1); settings: TTBK1(h), read-out: Inhibition rate (%)
T5 construct: purchased Eurofins (Celle Lévescault)
T5 sequence (Q5TCY1 whole entry): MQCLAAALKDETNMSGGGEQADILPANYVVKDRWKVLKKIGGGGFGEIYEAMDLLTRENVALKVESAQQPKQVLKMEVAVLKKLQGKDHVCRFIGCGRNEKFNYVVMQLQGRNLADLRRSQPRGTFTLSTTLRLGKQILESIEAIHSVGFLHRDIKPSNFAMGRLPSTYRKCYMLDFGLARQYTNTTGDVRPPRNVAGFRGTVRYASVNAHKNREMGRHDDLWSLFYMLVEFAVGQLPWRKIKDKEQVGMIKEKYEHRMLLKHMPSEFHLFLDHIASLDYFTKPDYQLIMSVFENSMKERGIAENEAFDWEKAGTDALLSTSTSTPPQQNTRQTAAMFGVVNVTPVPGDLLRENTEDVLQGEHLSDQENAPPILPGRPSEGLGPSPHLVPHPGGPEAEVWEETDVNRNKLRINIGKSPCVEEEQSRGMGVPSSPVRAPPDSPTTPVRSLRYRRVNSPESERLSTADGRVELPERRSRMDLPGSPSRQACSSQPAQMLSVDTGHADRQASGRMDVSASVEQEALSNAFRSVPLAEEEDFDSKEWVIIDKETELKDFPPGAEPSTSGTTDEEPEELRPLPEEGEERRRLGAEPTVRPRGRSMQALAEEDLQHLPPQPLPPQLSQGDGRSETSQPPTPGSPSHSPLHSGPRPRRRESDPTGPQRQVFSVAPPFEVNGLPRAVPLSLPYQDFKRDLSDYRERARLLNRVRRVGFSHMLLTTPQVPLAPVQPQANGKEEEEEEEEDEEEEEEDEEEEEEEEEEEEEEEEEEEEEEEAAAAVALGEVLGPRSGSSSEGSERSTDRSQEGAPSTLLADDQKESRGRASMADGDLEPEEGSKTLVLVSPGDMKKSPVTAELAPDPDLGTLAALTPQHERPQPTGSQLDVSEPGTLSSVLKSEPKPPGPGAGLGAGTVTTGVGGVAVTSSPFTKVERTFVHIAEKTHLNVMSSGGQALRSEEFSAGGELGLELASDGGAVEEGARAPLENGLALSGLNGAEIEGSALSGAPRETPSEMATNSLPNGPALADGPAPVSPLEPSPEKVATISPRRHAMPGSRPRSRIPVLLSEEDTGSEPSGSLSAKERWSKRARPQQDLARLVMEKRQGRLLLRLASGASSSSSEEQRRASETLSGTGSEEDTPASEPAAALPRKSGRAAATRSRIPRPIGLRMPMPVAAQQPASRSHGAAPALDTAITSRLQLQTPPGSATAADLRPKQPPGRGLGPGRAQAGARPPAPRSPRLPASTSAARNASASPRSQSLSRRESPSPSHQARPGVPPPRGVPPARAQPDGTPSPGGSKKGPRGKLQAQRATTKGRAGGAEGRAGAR
Procedure, shortened: as §1

[6] = molecular target: T6, 380 human recombinant protein kinases (Homo sapiens, UniProt Q8IWQ3); settings: BrSK2(h), read-out: Inhibition rate
T6 construct: purchased Eurofins (Celle Lévescault)
T6 sequence (Q8IWQ3 1-736): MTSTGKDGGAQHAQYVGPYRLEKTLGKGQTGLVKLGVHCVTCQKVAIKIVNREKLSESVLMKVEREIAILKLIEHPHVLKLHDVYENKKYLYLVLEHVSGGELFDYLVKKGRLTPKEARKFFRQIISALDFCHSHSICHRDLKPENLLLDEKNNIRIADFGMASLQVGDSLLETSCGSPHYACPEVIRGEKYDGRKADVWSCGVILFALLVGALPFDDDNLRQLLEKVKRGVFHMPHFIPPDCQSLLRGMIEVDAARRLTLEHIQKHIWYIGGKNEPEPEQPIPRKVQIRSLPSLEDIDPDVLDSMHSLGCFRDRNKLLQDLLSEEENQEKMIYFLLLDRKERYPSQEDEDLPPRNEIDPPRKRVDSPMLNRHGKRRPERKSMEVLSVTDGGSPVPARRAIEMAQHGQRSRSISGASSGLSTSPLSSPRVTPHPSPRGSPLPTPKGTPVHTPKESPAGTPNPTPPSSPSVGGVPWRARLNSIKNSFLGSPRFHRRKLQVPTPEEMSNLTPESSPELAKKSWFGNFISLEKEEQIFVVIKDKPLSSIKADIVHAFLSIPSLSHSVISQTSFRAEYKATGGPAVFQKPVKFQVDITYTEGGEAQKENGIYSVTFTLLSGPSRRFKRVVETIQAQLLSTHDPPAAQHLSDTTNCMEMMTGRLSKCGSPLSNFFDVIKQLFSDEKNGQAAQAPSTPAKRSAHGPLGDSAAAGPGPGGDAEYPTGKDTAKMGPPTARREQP
Procedure, shortened: as §1

[7] = molecular target: T7, 380 human recombinant protein kinases (Homo sapiens, UniProt Q9UQB9); settings: Aurora-C(h), read-out: Inhibition rate
T7 construct: purchased Eurofins (Celle Lévescault)
T7 sequence (Q9UQB9 1-309): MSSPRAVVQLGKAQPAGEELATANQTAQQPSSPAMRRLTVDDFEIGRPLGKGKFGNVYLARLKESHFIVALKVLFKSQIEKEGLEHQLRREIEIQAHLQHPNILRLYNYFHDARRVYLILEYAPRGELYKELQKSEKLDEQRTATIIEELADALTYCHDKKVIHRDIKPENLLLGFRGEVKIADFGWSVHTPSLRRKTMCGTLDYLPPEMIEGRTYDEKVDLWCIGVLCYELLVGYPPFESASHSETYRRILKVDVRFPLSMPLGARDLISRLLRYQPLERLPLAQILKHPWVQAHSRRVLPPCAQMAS
Procedure, shortened: as §1

T1 sequence (O43293 whole entry): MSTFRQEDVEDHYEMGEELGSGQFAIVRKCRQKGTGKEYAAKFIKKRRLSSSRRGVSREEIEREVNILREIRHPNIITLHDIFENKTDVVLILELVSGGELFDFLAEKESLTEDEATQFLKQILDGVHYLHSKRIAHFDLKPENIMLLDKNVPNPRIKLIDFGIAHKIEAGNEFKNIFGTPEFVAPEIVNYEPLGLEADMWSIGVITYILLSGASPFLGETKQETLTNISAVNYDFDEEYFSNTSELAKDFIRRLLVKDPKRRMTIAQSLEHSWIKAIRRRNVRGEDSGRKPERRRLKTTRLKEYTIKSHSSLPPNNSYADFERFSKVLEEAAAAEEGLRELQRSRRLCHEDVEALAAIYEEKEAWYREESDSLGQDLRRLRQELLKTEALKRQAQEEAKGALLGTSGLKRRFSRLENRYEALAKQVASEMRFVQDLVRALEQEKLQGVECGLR

`C=CC(=O)Nc1cc(-c2cc(-c3cc4c([nH]3)CCNC4=O)ccn2)ccc1OC(F)(F)F` [compound 11] gave an inhibition at 0.01 µM ([1]; 10 nM) of 4%, an inhibition at 0.1 µM ([1]; 100 nM) of 8% and an inhibition at 1 µM ([1]; 1000 nM) of 15%. For the same molecule, the inhibition at 0.01 µM ([2]; 10 nM) was -11%, the inhibition at 0.1 µM ([2]; 100 nM) was -12% and the inhibition at 1 µM ([2]; 1000 nM) was -11%. For the same molecule, the inhibition at 0.01 µM ([3]; 10 nM) was 1%, the inhibition at 0.1 µM ([3]; 100 nM) was 12% and the inhibition at 1 µM ([3]; 1000 nM) was 13%. For the same molecule, the inhibition at 0.01 µM ([4]; 10 nM) was 3%, the inhibition at 0.1 µM ([4]; 100 nM) was -3% and the inhibition at 1 µM ([4]; 1000 nM) was -11%. It also gave an inhibition at 0.01 µM ([5]; 10 nM) of -2%, an inhibition at 0.1 µM ([5]; 100 nM) of -5% and an inhibition at 1 µM ([5]; 1000 nM) of 3%. It also gave an inhibition at 0.01 µM ([6]; 10 nM) of -2%, an inhibition at 0.1 µM ([6]; 100 nM) of 6% and an inhibition at 1 µM ([6]; 1000 nM) of 26%. The inhibition at 0.01 µM ([7]; 10 nM) was 2%, the inhibition at 0.1 µM ([7]; 100 nM) was -5% and the inhibition at 1 µM ([7]; 1000 nM) was 6%.

From PMC11233931, “Remodeling tumor‐associated macrophage for anti‐cancer effects by rational design of irreversible inhibition of mitogen‐activated protein kinase‐activated protein kinase 2” (MedComm, 2024)
